Reference: patent US5082845A, “Therapeutic xanthine derivatives for the treatment of peptic ulcer disease” (Hoechst Japan Limited, priority 1988, dated 1992)

Tests used:
[1] = system: ethanol-induced gastric ulcer in rats; assay: Protective effect on ethanol-induced gastric ulcer in rats; assay type: in vivo, male Sprague-Dawley rats; settings: 10 mg/kg po; for Ulcer index: mean ± S.E.; for inhibition in vivo at 10 mg/kg: Rattus norvegicus
Protocol: 1.2 Protective Effect on Ethanol-Induced Gastric Ulcer in Rats
Male Sprague-Dawley rats weighing 250-300 g were used in groups of 5-24. After fasting overnight, the animals were given orally the compounds. Thirty minutes later they received absolute ethanol (1 ml/body) orally and were sacrificed after 60 minutes. The stomach was removed and examined for erosions. The ulcer index was obtained in the same way as under 1.1.

in vivo = settings: mouse, in vivo, mice
Protocol: (§1) LD50 values of the compounds of this invention were determined after intravenous injection or intraperitoneal administration to mice for acute toxicity test. The studies were carried out using male and female NMRI mice (n=3/group) having a body weight between 19-21 g.

[2] = system: stress-induced gastric ulcer in rats; assay: Protective effect on gastric ulcer induced by restraint plus water-immersion stress in rats; assay type: in vivo, male Sprague-Dawley rats; settings: 10 mg/kg po; for Ulcer index: mean ± S.E.; for inhibition in vivo at 10 mg/kg: Rattus norvegicus, stress-induced ulcer
Protocol: 1.1 Protective Effect on Gastric Ulcer Induced by Restraint Plus Water-Immersion Stress in Rats
Male Sprague-Dawley rats weighing 250-300 g were used in groups of 5-34. The animals were given the compounds by the oral route after fasting overnight. Immediately, under light ether anesthesia they were placed in a restraint box and immersed in water at 20° C. for 6 or 7 hours. Then the animals were sacrificed, and their stomachs were isolated, inflated with 4 ml of 1% formalin for 10 minutes, opened along the greater curvature, and examined for the presence of gastric erosions. The longest axis of each erosion induced on the glandular section of the stomach was measured, and the sum of the lengths was defined as an ulcer index.

peptic ulcer disease = settings: Ter. Arkh. 57, 52-55, 1985; cited from earlier work
mice = assay: in vivo; settings: acute
Protocol: as §1

[3] = series with control (10% EtOH) 118.8 ± 9.6 mm
[4] = ip, intraperitoneal administration, 7 days (footnote b)
[5] = series with control (distilled water) 19.7 ± 2.9 mm
[6] = series with control 19.7 ± 2.9 mm
[7] = series with control (distilled water) 26.2 ± 1.6 mm
[8] = series with control 26.2 ± 1.6 mm
[9] = series with control 164.7 ± 19.4 mm
[10] = series with control (distilled water) 111.6 ± 10.4 mm
[11] = series with control 111.6 ± 10.4 mm
[12] = series with control (distilled water) 164.7 ± 19.4 mm

| SMILES | Ulcer index [2, 5] | inhibition in vivo at 10 mg/kg [2, 6] | Ulcer index [2, 7] | inhibition in vivo at 10 mg/kg [2, 8] | LD50 at 168 h (in vivo; intravenous, n=3/group, 7 days) | also measured |
| --- | --- | --- | --- | --- | --- | --- |
| CCCCCCn1c(=O)c2c(ncn2CCCCC(C)O)n(C)c1=O (stereo not shown) [Compound 17] |  |  |  |  |  | Ulcer index [1, 3]: 13.4 ± 5.2 mm; inhibition in vivo at 10 mg/kg [1, 3]: 88.7%; LD50 at 168 h (in vivo; [4]): 500 to 1000 mg/kg |
| CCCn1c(=O)c2c(ncn2CCCCC(C)O)n(C)c1=O (stereo not shown) [Compound 15] | 2.2 ± 0.9 mm | 88.9% |  |  |  | LD50 at 168 h (in vivo; intravenous, method of LitchfieldWilcoxon using 10 mice/dose (footnote a)): 123 mg/kg |
| CCn1c(=O)n(CC(C)=O)c(=O)c2c1ncn2CCCCC(O)CO (stereo not shown) [Compound 7, 3-Ethyl-7-(5,6-dihydroxyhexyl)-1-(2-oxopropyl)-xanthine] |  |  | 20.4 ± 4.1 mm | 21.9% | > 200 mg/kg |  |
| C=CCn1c(=O)c2c(ncn2CCCCC(C)O)n(C)c1=O (stereo not shown) [Compound 18, 1-Allyl-7-(5-hydroxyhexyl)-3-methylxanthine] | 15.3 ± 2.1 mm | 22.3% |  |  |  | LD50 at 168 h (in vivo; [4]): 250 to 500 mg/kg |
| CC(=O)CCCCn1c(=O)c2c(ncn2C)n(C)c1=O [Compound 25, 1,2,3,6-tetrahydro-3,7-dimethyl-1-(5-oxohexyl)-purine-2,6-dione, reference compound] |  | 12.7% |  |  |  | inhibition in vivo at 10 mg/kg [1, 9]: 78.8%; antiulcer effects (in words) (peptic ulcer disease): antiulcer effects |
| CCCCn1c(=O)c2c(ncn2CCCCC(O)CO)n(C)c1=O (stereo not shown) [Compound 10] |  |  | 4.5 ± 1.4 mm | 82.8% |  | Ulcer index [1, 10]: 1.1 ± 0.5 mm; inhibition in vivo at 10 mg/kg [1, 11]: 99% |
| CCCCn1c(=O)c2c(ncn2CCCCC(O)CO)n(CC)c1=O (stereo not shown) [Compound 3] | 6.0 ± 1.9 mm | 69.6% |  |  |  | Ulcer index [1, 12]: 5.3 ± 3.3 mm; inhibition in vivo at 10 mg/kg [1, 9]: 96.8% |
| CCCn1c(=O)c2c(ncn2CCCC(O)C(C)O)n(CC)c1=O (stereo not shown) [Compound 12] |  |  | 4.3 ± 0.8 mm | 83.5% | > 200 mg/kg |  |
| CCn1c(=O)n(C(C)C)c(=O)c2c1ncn2CCCCC(O)CO (stereo not shown) [Compound 2] |  |  | 11.5 ± 2.1 mm | 56% |  | Ulcer index [1, 10]: 6.7 ± 2.8 mm; inhibition in vivo at 10 mg/kg [1, 11]: 94% |
| CC(=O)Cn1cnc2c1c(=O)n(CCCCC(C)O)c(=O)n2C (stereo not shown) [Compound 23, 1-(5-Hydroxyhexyl)-3-methyl-7-(2-oxopropyl)-xanthine] | 15.8 ± 4.6 mm | 19.8% |  |  | > 200 mg/kg |  |
| CCn1c(=O)n(CC(C)O)c(=O)c2c1ncn2CCCCC(O)CO (stereo not shown) [Compound 8, 3-Ethyl-7-(5,6-dihydroxyhexyl)-1-(2-hydroxypropyl)-xanthine] |  |  | 20.7 ± 4.6 mm | 21% | > 200 mg/kg |  |
| CCCn1cnc2c1c(=O)n(CCCCC(O)CO)c(=O)n2CC (stereo not shown) [Compound 14] |  |  | 10.4 ± 1.9 mm | 60.2% |  | LD50 at 168 h (in vivo; [4]): 300 to 600 mg/kg |
| CC(=O)CCCCn1c(=O)c2c(ncn2CC(C)O)n(C)c1=O (stereo not shown) [Compound 20] | 6.9 ± 2.1 mm | 65% |  |  | > 200 mg/kg |  |
| CCCCCn1c(=O)c2c(ncn2CCCCC(O)CO)n(CC)c1=O (stereo not shown) [Compound 4] |  |  | 9.2 ± 1.9 mm | 64.7% | > 200 mg/kg | Ulcer index [1, 10]: 15.6 ± 5.8 mm; inhibition in vivo at 10 mg/kg [1, 11]: 86% |
| C=CCn1cnc2c1c(=O)n(CCCCC(C)O)c(=O)n2C (stereo not shown) [Compound 21, 7-allyl-1-(5-hydroxyhexyl)-3-methylxanthine] |  |  | 13.4 ± 3.2 mm | 48.9% | 100 to 200 mg/kg |  |
| CCCn1c(=O)c2c(ncn2CCCCCC(O)CO)n(CC)c1=O (stereo not shown) [Compound 13] |  |  | 8.9 ± 2.1 mm | 66% | 200 to 400 mg/kg | Ulcer index [1, 10]: 5.0 ± 2.2 mm; inhibition in vivo at 10 mg/kg [1, 11]: 95.5% |
| CCn1c(=O)c2c(ncn2CCCCC(C)=O)n(C)c1=O [Compound 22] | 8.0 ± 4.2 mm | 59% |  |  |  | LD50 at 168 h (in vivo; [4]): 200 to 400 mg/kg |
| CCCCn1c(=O)c2c(ncn2CCCCC(C)O)n(C)c1=O (stereo not shown) [Compound 16] |  |  | 10.6 ± 0.9 mm | 59.4% | 100 to 200 mg/kg | Ulcer index [1, 10]: 4.1 ± 0.8 mm; inhibition in vivo at 10 mg/kg [1, 11]: 96.3% |
| CC(=O)Cn1c(=O)c2c(ncn2CCCCC(C)O)n(C)c1=O (stereo not shown) [Compound 19, 7-(5-Hydroxyhexyl)-3-methyl-1-(2-oxopropyl)-xanthine] |  |  | 15.0 ± 2.4 mm | 42.8% | > 200 mg/kg |  |
| C=CCn1c(=O)c2c(ncn2CCCCC(O)CO)n(CC)c1=O (stereo not shown) [Compound 6, 1-Allyl-3-ethyl-7-(5,6-dihydroxyhexyl)-xanthine] |  |  | 7.0 ± 0.9 mm | 73.2% | > 200 mg/kg | Ulcer index [1, 10]: 10.7 ± 1.4 mm; inhibition in vivo at 10 mg/kg [1, 11]: 90.4% |
| CC(=O)CCCCn1c(=O)c2c(ncn2CCCCC(O)CO)n(C)c1=O (stereo not shown) [Compound 11, 7-(5,6-dihydroxyhexyl)-3-methyl-1-(5-oxohexyl)-xanthine] |  |  | 13.8 ± 1.7 mm | 47.4% | > 200 mg/kg |  |
| CCCn1c(=O)n(CCCCC(C)=O)c(=O)c2c1ncn2CCCCC(O)CO (stereo not shown) [Compound 9, 7-(5,6-Dihydroxyhexyl)-1-(5-oxohexyl)-3-n-propylxanthine] |  |  | 20.2 ± 5.8 mm | 22.9% | > 200 mg/kg |  |
| CC(=O)CCCCn1cnc2c1c(=O)n(CC(C)=O)c(=O)n2C [Compound 24, 3-Methyl-7-(5-oxohexyl)-1-(2-oxopropyl)-xanthine] | 10.3 ± 3.5 mm | 47.7% |  |  | > 200 mg/kg |  |
| CCn1c(=O)n(CC(C)C)c(=O)c2c1ncn2CCCCC(O)CO (stereo not shown) [Compound 5] |  |  | 7.1 ± 1.8 mm | 72.9% | > 200 mg/kg |  |
| CCCn1c(=O)c2c(ncn2CCCCC(O)CO)n(CC)c1=O (stereo not shown) [Compound 1] | 2.7 ± 0.9 mm | 86.3% |  |  |  | Ulcer index [1, 12]: 6.7 ± 2.1 mm; inhibition in vivo at 10 mg/kg [1, 9]: 95.8%; toxicity (in words) (mice): low toxicity |
